According to patent US20240373847A1, “HERBICIDAL MALONAMIDES” (BASF SE, priority 2021, published 2024):

Tests used:
Format in all cases: in vivo
[1] = test system: Echinocloa crus-galli (ECHCG); assay: greenhouse test, post-emergence treatment; settings: 0.500 kg/ha, post-emergence method; scale from 0 to 100
Text: (§1) The culture containers used were plastic flowerpots containing loamy sand with approximately 3.0% of humus as the substrate. The seeds of the test plants were sown separately for each species.
(§2) For the post-emergence treatment, the test plants were first grown to a height of 3 to 15 cm, depending on the plant habit, and only then treated with the active ingredients which had been suspended or emulsified in water. For this purpose, the test plants were either sown directly and grown in the same containers, or they were first grown separately as seedlings and transplanted into the test containers a few days prior to treatment.
(§3) Depending on the species, the test plants were kept at 10-25° C. or 20-35° C., respectively.
(§4) The test period extended over 2 to 4 weeks. During this time, the test plants were tended, and their response to the individual treatments was evaluated.
(§5) Evaluation was carried out using a scale from 0 to 100. 100 means no emergence of the test plants, or complete destruction of at least the aerial moieties, and 0 means no damage, or normal course of growth. A good herbicidal activity is given at values of 70 to <90 and a very good herbicidal activity is given at values of 90 to 100.
(§6) The test plants used in the greenhouse experiments were of the following species: […]

[2] = test system: Apera spica-venti (APESV); assay: greenhouse test, pre-emergence treatment; settings: 0.125 kg/ha, pre-emergence method; scale from 0 to 100
Text: as §1
(§7) For the pre-emergence treatment, the active ingredients, which had been suspended or emulsified in water, were applied directly after sowing by means of finely distributing nozzles. The containers were irrigated gently to promote germination and growth and subsequently covered with transparent plastic hoods until the test plants had rooted.
(§8) This cover caused uniform germination of the test plants, unless this had been impaired by the active ingredients.
as §3, §4, §5, §6

[3] = test system: Amaranthus retroflexus (AMARE); assay: greenhouse test, pre-emergence treatment; settings: pre-emergence method, scale from 0 to 100
Text: as §1, §7, §8, §3, §4, §5, §6

[4] = test system: Digitaria sanguinalis (DIGSA); assay: greenhouse test, pre-emergence treatment; settings: 1.000 kg/ha, pre-emergence method; scale from 0 to 100
Text: as §1, §7, §8, §3, §4, §5, §6

[5] = test system: Lolium multiflorum (LOLMU); assay: greenhouse test, pre-emergence treatment; settings: 1.000 kg/ha, pre-emergence method; scale from 0 to 100
Text: as §1, §7, §8, §3, §4, §5, §6

[6] = test system: Setaria viridis (SETVI); assay: greenhouse test, pre-emergence treatment; settings: 0.250 kg/ha, pre-emergence method; scale from 0 to 100
Text: as §1, §7, §8, §3, §4, §5, §6

[7] = test system: Setaria faberi (SETFA); assay: greenhouse test, pre-emergence treatment; settings: 0.125 kg/ha, pre-emergence method; scale from 0 to 100
Text: as §1, §7, §8, §3, §4, §5, §6

[8] = test system: Echinocloa crus-galli (ECHCG); assay: greenhouse test, pre-emergence treatment; settings: 0.125 kg/ha, pre-emergence method; scale from 0 to 100
Text: as §1, §7, §8, §3, §4, §5, §6

[9] = test system: Abutilon theophrasti (ABUTH); assay: greenhouse test, pre-emergence treatment; settings: 0.125 kg/ha, pre-emergence method; scale from 0 to 100
Text: as §1, §7, §8, §3, §4, §5, §6

[10] = test system: Setaria viridis (SETVI); assay: greenhouse test, post-emergence treatment; settings: 1.000 kg/ha, post-emergence method; scale from 0 to 100
Text: as §1, §2, §3, §4, §5, §6

[11] = test system: Amaranthus retroflexus (AMARE); assay: greenhouse test, post-emergence treatment; settings: 1.000 kg/ha, post-emergence method; scale from 0 to 100
Text: as §1, §2, §3, §4, §5, §6

For `COC(=O)CC(C)NC(=O)C(C(=O)Nc1cc(Cl)cc(Cl)c1)C1CC1` (stereo not shown) [I.3], the “herbicidal activity against ECHCG” value [1] was “good herbicidal activity (A good herbicidal activity is given at values of 70 to <90)”.
With `CCc1cccc(NC(=O)C(CC)C(=O)NC(C)CCC(=O)OC)c1` (stereo not shown) [I.117] the “herbicidal activity against APESV” value [2] was “very good herbicidal activity (a very good herbicidal activity is given at values of 90 to 100)”.
In the case of `COC(=O)CC(C)NC(=O)C(C)C(=O)Nc1cc(Cl)cc(Cl)c1` (stereo not shown) [I.1], the “herbicidal activity against AMARE” value ([3]; 0.500 kg/ha) is reported as “good herbicidal activity (A good herbicidal activity is given at values of 70 to <90)”.
For `CCC(C(=O)Nc1cccc(F)c1)C(=O)N[C@H]1C=C[C@@H](C(=O)O)C1` (stereo partly shown) [I.138], the “herbicidal activity against DIGSA” value [4] was “good herbicidal activity (A good herbicidal activity is given at values of 70 to <90)” and the “herbicidal activity against LOLMU” value [5] was “good herbicidal activity (A good herbicidal activity is given at values of 70 to <90)”.
With `COC(=O)C1C=CC(NC(=O)C(C)C(=O)Nc2cc(F)cc(F)c2)C1` (mixture of isomers) [I.153] the “herbicidal activity against SETVI” value [6] was “very good herbicidal activity (a very good herbicidal activity is given at values of 90 to 100)”.
In the case of `CCC(C(=O)Nc1cc(Cl)cc(Cl)c1)C(=O)N[C@H]1C=C[C@@H](C(=O)OC)C1` (stereo partly drawn) [I.90, methyl (1S,4R)-4-[2-[(3,5-dichlorophenyl)carbamoyl]butanoylamino]cyclopent-2-ene-1-carboxylate], the “herbicidal activity against SETFA” value [7] is reported as “good herbicidal activity (A good herbicidal activity is given at values of 70 to <90)”.
With `CCS(=O)(=O)NC(=O)CC(C)NC(=O)C(C)C(=O)Nc1cc(C)cc(F)c1` (stereo not shown) [I.14] the “herbicidal activity against AMARE” value ([3]; 0.125 kg/ha) was “very good herbicidal activity (a very good herbicidal activity is given at values of 90 to 100)” and the “herbicidal activity against ECHCG” value [8] was “good herbicidal activity (A good herbicidal activity is given at values of 70 to <90)”.
`CONC(=O)CC(C)NC(=O)C(C)C(=O)Nc1cc(F)cc(F)c1` (stereo not shown) [I.79] was tested, and the “herbicidal activity against ABUTH” value [9] was “good herbicidal activity (A good herbicidal activity is given at values of 70 to <90)”.
`CCC(C(=O)Nc1cc(C)cc(F)c1)C(=O)NC(C)CCC(=O)O` (stereo not shown) [I.136] was tested, and the “herbicidal activity against SETVI” value [10] was “good herbicidal activity (A good herbicidal activity is given at values of 70 to <90)”.
With `CCC(C(=O)Nc1cccc(OC(F)(F)F)c1)C(=O)NC(C)CCC(=O)O` (stereo not shown) [I.128] the “herbicidal activity against AMARE” value ([3]; 1.000 kg/ha) was “very good herbicidal activity (a very good herbicidal activity is given at values of 90 to 100)”.
`CCC(C(=O)Nc1cc(F)cc(F)c1)C(=O)NC(C)CC(=O)O` (stereo not shown) [I.144] was tested, and the “herbicidal activity against AMARE” value [11] was “good herbicidal activity (A good herbicidal activity is given at values of 70 to <90)”.
